Reference: patent EP0248972A2, “Ammoniummonofluorophosphates, process for their preparation and their use” (Benckiser-Knapsack GmbH, priority 1986, dated 1987)

Assay: Behaviour with water (emulsion formation)
Format: physicochemical
Details: mit Wasser bei 20 C

SMILES: CCCCCCCC/C=C\CCCCCCCCNCCCN [N-Oleyl-1,3-diammoniumpropanmonofluorophosphat]
- Verhalten mit Wasser: stabile Emulsion
